From PubChem BioAssay AID2060506 (Molecular Pharmacology Branch, DTP, NCI, 2025)
Values joined by “and” are separate entries in the source; they are usually repeats but may differ in a detail not shown here. Equal values may be shown once. One block for each compound: values may come before it.

System: 598228-144-R-J1-PDC complex spheroid viability
Test: Anticancer human tumor 598228-144-R-J1-PDC patient-derived serous endometrial adenocarcinoma cell line growth inhibition [GQUAD]
Settings: for viability, T/C: stronger effect = lower value
From the text: DNA G-quadruplex Stabilizer Agents in Combinations in Complex Spheroids
A high-throughput screen of multi-cell type tumor spheroids was designed to identify active combinations of DNA G-quadruplex stabilizer agents and targeted small molecules. Complex spheroids include a stromal component modeled by human endothelial cells (HUVEC) and fibroblasts modeled by human mesenchymal stem cells (MSCs). The concentration ranges selected for each drug and investigational agent were based upon clinically achievable concentrations if the clinical Cmax of the agent was known.
Compounds. The drugs and investigational agents: pidnarulex (CX-5461; NSC782164), APTO-253 (NSC789042), BRACO-19 (NSC847499), peposertib (NSC802822), ceralasertib (NSC780249), elimusertib (NSC800525), camonsertib (NSC841442), AZD-1390 (NSC803789), olaparib (NSC753686), talazoparib (NSC767125), ART-558 (NSC835418), sotorasib (NSC818433), MRTX-1133 (NSC836407), SN-38 (NSC673596), topotecan (NSC609699), etoposide (NSC141540), doxorubicin (NSC123127), gemcitabine (NSC613327), 5-fluorouracil (NSC19893), paclitaxel (NSC125973), vemurafenib (NSC761431), panobinostat (NSC761190), R-306465 (JNJ-16241199; NSC773264), adavosertib (NSC754352), TP-3654 (NSC805149), carboplatin (NSC241240), KSQ-4279 (NSC840948), and staurosporine (NSC755774) were obtained from the National Cancer Institute (NCI) Developmental Therapeutics Program Chemical Repository (34). The FDA-approved anticancer drug set is available from the NCI Developmental Therapeutics Program. […] The stock solutions were prepared in dimethyl sulfoxide (DMSO, Sigma-Aldrich, St. Louis, MO, cat. D2650) at 800-fold the tested concentration and stored at -70 degrees C prior to their use. All drugs and investigational agents were tested over a range starting from a high concentration at or near the clinical Cmax and decreasing in half-log increments. If the clinical Cmax for an agent had not been determined, the highest concentration tested was 10 microM.
2.3 Cell Culture. All cells were maintained in an incubator at 37 degrees C and 5% CO2 with 95% humidity. The PDC lines were cultured according to standard operating procedures established by the NCI PDMR. All PDCs were thawed and cultured in Matrigel-coated flasks prepared with a working solution of 1X Ham's F-12 nutrient mix, without supplementation (Invitrogen, cat. 11765054), 100 U/mL penicillin-streptomycin (Invitrogen, cat. 15140122), and 2.5% Matrigel (Corning Inc., cat. 354248) for the first three passages. The 857933-349-R-J2-PDC line was cultured in 6C/Colon 1B media, which includes advanced DMEM/F-12 (Thermo Fisher Scientific, cat. 12634028), 10 mM HEPES (Thermo Fisher Scientific, cat. 15630080), 1X GlutaMAX supplement (Thermo Fisher Scientific, cat. 35050061), 0.1 mg/mL primocin (InvivoGen, cat. ant-pm-2), 10% defined fetal bovine serum, heat inactivated (HyClone Laboratories Inc., cat. SH30070.03HI), 50% L-WRN conditioned media (ATCC, cat. CRL-3276), 1.25 mM N-Acetyl-L-cysteine (Sigma-Aldrich, cat. A9165), 10 mM nicotinamide (Sigma-Aldrich, cat. N0636), 1X B-27 supplement (Thermo Fisher Scientific, cat. 17504044), 1X N-2 supplement (Thermo Fisher Scientific, cat. 17502048), 10 microM Y-27632 dihydrochloride (Tocris Bioscience, cat. 1254), and 50 ng/mL human EGF recombinant protein (Thermo Fisher Scientific, cat. PHG0311). The 485176-168-R4-J1-PDC line was cultured in Panc media, which includes all 6C/Colon 1B media components plus 100 ng/mL human FGF-10 (Thermo Fisher Scientific, cat. 100-26), 500 nM SB-431542 (Selleckchem, cat. S1067), and gastrin (Tocris, cat. 3006).
[…]

[1] = curve of first compound, second compound 0.0316 µM
[2] = curve of first compound, second compound 0.1 µM
[3] = curve of first compound, second compound 0.316 µM
[4] = curve of first compound, second compound 1 µM
[5] = curve of first compound, second compound 3.16 µM
[6] = curve of first compound, second compound 10 µM
[7] = second compound 0.0316 µM, first compound 0.0316 µM
[8] = second compound 0.0316 µM, first compound 0.316 µM
[9] = second compound 0.1 µM, first compound 0.0316 µM
[10] = second compound 0.1 µM, first compound 0.316 µM
[11] = second compound 0.316 µM, first compound 0.0316 µM
[12] = second compound 0.316 µM, first compound 0.316 µM
[13] = second compound 1 µM, first compound 0.0316 µM
[14] = second compound 1 µM, first compound 0.316 µM
[15] = second compound 3.16 µM, first compound 0.0316 µM
[16] = second compound 3.16 µM, first compound 0.316 µM
[17] = second compound 10 µM, first compound 0.0316 µM
[18] = second compound 10 µM, first compound 0.316 µM
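Note: spheroids exposed to the agents for one week before reading.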
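Throughout, for viability, T/C: percent of vehicle DMSO control viability so 100% = untreated growth.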

SMILES: Cn1ncnc1[C@H]1c2n[nH]c(=O)c3cc(F)cc(c23)N[C@@H]1c1ccc(F)cc1 + Cc1[nH]c2ccc(F)cc2c1-c1nc2c3cccnc3c3ncccc3c2[nH]1
IC50 [1]: > 316 nM | IC50 [2]: > 316 nM | IC50 [3]: > 316 nM | IC50 [4]: > 316 nM | IC50 [5]: < 0.999 nM | IC50 [6]: > 316 nM | viability, T/C (second compound 0.0316 µM, first compound 0.000999 µM): 125% | viability, T/C (second compound 0.0316 µM, first compound 0.00316 µM): 86.2% | viability, T/C (second compound 0.0316 µM, first compound 0.00999 µM): 106% | viability, T/C [7]: 71.6% | viability, T/C (second compound 0.0316 µM, first compound 0.0999 µM): 80.8% | viability, T/C [8]: 83.3% | viability, T/C (second compound 0.1 µM, first compound 0.000999 µM): 103% | viability, T/C (second compound 0.1 µM, first compound 0.00316 µM): 99% | viability, T/C (second compound 0.1 µM, first compound 0.00999 µM): 78.8% | viability, T/C [9]: 70.6% | viability, T/C (second compound 0.1 µM, first compound 0.0999 µM): 93.8% | viability, T/C [10]: 73.3% | viability, T/C (second compound 0.316 µM, first compound 0.000999 µM): 78.6% | viability, T/C (second compound 0.316 µM, first compound 0.00316 µM): 79.3% | viability, T/C (second compound 0.316 µM, first compound 0.00999 µM): 76.6% | viability, T/C [11]: 72% | viability, T/C (second compound 0.316 µM, first compound 0.0999 µM): 69.7% | viability, T/C [12]: 60.4% | viability, T/C (second compound 1 µM, first compound 0.000999 µM): 63.9% | viability, T/C (second compound 1 µM, first compound 0.00316 µM): 59.2% | viability, T/C (second compound 1 µM, first compound 0.00999 µM): 66.2% | viability, T/C [13]: 56.7% | viability, T/C (second compound 1 µM, first compound 0.0999 µM): 50.9% | viability, T/C [14]: 57.7% | viability, T/C (second compound 3.16 µM, first compound 0.000999 µM): 33.1% | viability, T/C (second compound 3.16 µM, first compound 0.00316 µM): 43.8% | viability, T/C (second compound 3.16 µM, first compound 0.00999 µM): 51.1% | viability, T/C [15]: 37.9% | viability, T/C (second compound 3.16 µM, first compound 0.0999 µM): 39.6% | viability, T/C [16]: 40.3% | viability, T/C (second compound 10 µM, first compound 0.000999 µM): 64.3% | viability, T/C (second compound 10 µM, first compound 0.00316 µM): 58.9% | viability, T/C (second compound 10 µM, first compound 0.00999 µM): 64.6% | viability, T/C [17]: 53% | viability, T/C (second compound 10 µM, first compound 0.0999 µM): 55.6% | viability, T/C [18]: 51.8%

IC50 [1]: 6970 nM | IC50 [2]: 6450 nM | IC50 [3]: 4940 nM | IC50 [4]: 5230 nM | IC50 [5]: 3620 nM | IC50 [6]: < 31.6 nM
SMILES: CCCS(=O)(=O)Nc1ccc(F)c(C(=O)c2c[nH]c3ncc(-c4ccc(Cl)cc4)cc23)c1F + Cc1cnc(CNC(=O)c2c(=O)c3ccc(N4CCCN(C)CC4)nc3n3c2sc2ccccc23)cn1
viability, T/C [7]: 92.8% | viability, T/C (second compound 0.0316 µM, first compound 0.1 µM): 96% | viability, T/C [8]: 113% | viability, T/C (second compound 0.0316 µM, first compound 1 µM): 92.5% | viability, T/C (second compound 0.0316 µM, first compound 3.16 µM): 109% | viability, T/C (second compound 0.0316 µM, first compound 10 µM): 26.9% | viability, T/C [9]: 77.7% | viability, T/C (second compound 0.1 µM, first compound 0.1 µM): 81.5% | viability, T/C [10]: 60.7% | viability, T/C (second compound 0.1 µM, first compound 1 µM): 65.6% | viability, T/C (second compound 0.1 µM, first compound 3.16 µM): 92.2% | viability, T/C (second compound 0.1 µM, first compound 10 µM): 34.4% | viability, T/C [11]: 59.4% | viability, T/C (second compound 0.316 µM, first compound 0.1 µM): 82% | viability, T/C [12]: 74% | viability, T/C (second compound 0.316 µM, first compound 1 µM): 62.3% | viability, T/C (second compound 0.316 µM, first compound 3.16 µM): 65.7% | viability, T/C (second compound 0.316 µM, first compound 10 µM): 27.3% | viability, T/C [13]: 64.5% | viability, T/C (second compound 1 µM, first compound 0.1 µM): 70.7% | viability, T/C [14]: 62.3% | viability, T/C (second compound 1 µM, first compound 1 µM): 65.6% | viability, T/C (second compound 1 µM, first compound 3.16 µM): 73.8% | viability, T/C (second compound 1 µM, first compound 10 µM): 27.7% | viability, T/C [15]: 59.9% | viability, T/C (second compound 3.16 µM, first compound 0.1 µM): 47.5% | viability, T/C [16]: 48.4% | viability, T/C (second compound 3.16 µM, first compound 1 µM): 61.5% | viability, T/C (second compound 3.16 µM, first compound 3.16 µM): 65.6% | viability, T/C (second compound 3.16 µM, first compound 10 µM): 0.38% | viability, T/C [17]: 33.5% | viability, T/C (second compound 10 µM, first compound 0.1 µM): 32.5% | viability, T/C [18]: 18.7% | viability, T/C (second compound 10 µM, first compound 1 µM): 24.7% | viability, T/C (second compound 10 µM, first compound 3.16 µM): 40.9% | viability, T/C (second compound 10 µM, first compound 10 µM): 0.26%

IC50 (curve of compound): > 316 nM and 305 nM
SMILES: CC[C@@]1(O)C(=O)OCc2c1cc1n(c2=O)Cc2cc3c(CN(C)C)c(O)ccc3nc2-1
viability, T/C (compound 0.000999 µM): 116% and 95.5% and 102% | viability, T/C (compound 0.00316 µM): 96.2% and 89.7% and 95.8% | viability, T/C (compound 0.00999 µM): 128% and 70.9% and 96.4% | viability, T/C (compound 0.0316 µM): 94.6% and 72% and 86.3% | viability, T/C (compound 0.0999 µM): 68.6% and 55% and 64.9% | viability, T/C (compound 0.316 µM): 68.7% and 50.2% and 51.1%

IC50 (curve of compound): < 31.6 nM
SMILES: Nc1ccn(C2OC(CO)C(O)C2(F)F)c(=O)n1 (stereo not drawn)
viability, T/C (compound 0.0316 µM): 44.7% and 45.7% and 52.1% | viability, T/C (compound 0.1 µM): 46.9% and 45.7% and 47.2% | viability, T/C (compound 0.316 µM): 49.2% and 45.3% and 41.9% | viability, T/C (compound 1 µM): 52% and 47.8% and 53% | viability, T/C (compound 3.16 µM): 40.2% and 36.2% and 38.9% | viability, T/C (compound 10 µM): 47.3% and 43.5% and 45.3%
